# Key:
# Assay type in all cases: in vivo, mouse
# [1] = system: HF-fed and genetically obese mice; test: Tissue triglyceride analysis and H and E staining of liver, pancreas, kidney, muscle, adipose tissue
# Description: Mice, diet, and drug treatment. Dietary Obesity Studies: Wild type (wt) male C57/BL6 male mice were maintained on either a standard laboratory chow-fed diet (Con) with 13% kcal fat, (diet #5053, Lab Diet, Inc, St. Louis, Mo.) or a high fat, western style diet (HFD) with 45% kcals from fat, (diet #58126, Lab Diet, Inc., St. Louis, Mo.) for 4 months. One month after the start of the HFD treatment, the Con and HFD groups werefurther split into 3 additional groups for […] to: i) remain on either Con or HFD and the drinking water containing 1% DMSO; ii) Con or HFD and drinking water containing 3.0 mg/100 ml AC261066, a specific RARβ agonist in 1% DMSO, or iii) Con or HFD and drinking water containing 3.0 mg/100 ml of AC55649, another specific RARβ agonist in 1% DMSO. All mice remained on their diets for 4 months. […]
# Tissue Triglyceride Analysis: Total tissue lipids were extracted from using the Folch method. […] Tissue triglycerides were determined enzymatically using Triglycerides Reagent kit (Invitrogen, Life Technologies, Carlsbad, Calif., USA) according to the manufacture's protocol. Tissue triglycerides were normalized to tissue protein concentrations and reported as mean±standard error of the mean (S.E.M) and P-values were calculated using one-way analysis of variance followed by Bonferroni multiple comparison test post-hoc analysis.
# [2] = system: renal stellate cells (RSCs); test: Double immunofluorescence (vimentin, α-SMA) of renal stellate cells in Db/Db mice; details: Db/Db mice treated for 4 weeks
# Description: Retinoic Acid Receptor β (RARβ) Agonists Diminish The Activation of Fibrogenic Kidney Stellate Cells. Given that we observed a significant decrease in mRNA transcripts of α-SMA we measured kidney protein expression of α-SMA in fibrogenic renal stellate cells Renal stellate cells (RSCs) are resident kidney fibroblasts, which in response to inflammation undergo differentiation to “activated” myofibroblasts that secrete contractile proteins such as α-SMA. […] RSCs express the mesenchymal protein marker vimentin. We used double immunofluorescence to label RSCs and determine the percentage of activated RSCs expressing the fibrogenic protein α-SMA. Using Db/Db mice, which spontaneously diabetes and DN in a similar manner to humans, we detected more than a 4-fold increase in activated α-SMA positive RSCs compared to wt con mice (FIG. 33F, G). Db/Db mice treated with AC261066 for 4 weeks had more than a 50% reduction in α-SMA positive RSCs (FIG. 33F, G).
# METHODS. Immunofluorescence and Immunostaining Microscopy-Paraffin embedded pancreatic tissue sections were incubated with antibodies against: insulin (mouse monoclonal 1:300, #1061, Beta Cell Biology Consortium), vimentin (rabbit polyclonal 1:500, Santa Cruz), or α-SMA (mouse monoclonal, 1:1000, Dako, Inc).
# [3] = system: HF-fed C57/BL6 mice; test: HF-fed mice treated 3 months: body weight, GTT, fasting glucose (Example 22)
# Procedure: METHODS. Preparation of RARβ agonists solution. AC261066 and AC55649 were dissolved in dimethyl sulfoxide (DMSO) at the concentration of 3.0 mg/ml and diluted in the drinking water for mice to the final concentration of 3.0-mg/100 ml. Mice, diet, and drug treatments. Wt male C57/BL6 male mice were maintained on either a standard laboratory chow-fed diet (Con) with 13% kcal fat, (diet #5053, Lab Diet, Inc, St. Louis, Mo., [n=4]) or a high fat, western style diet (HFD) with 45% kcals from fat, (diet #58126, Lab Diet, Inc., St. Louis, Mo.) for 3 months. Two weeks after the start of the HFD treatment, the HFD group was further split into 3 groups for 3 months: i) HFD and drinking water containing 1% DMSO (n=5); ii) high fat diet (HFD) and drinking water containing 3.0 mg/100 ml AC261066, a specific RARβ agonist (n=5) or iii) HFD and drinking water containing 3.0 mg/100 ml AC55649, a specific RARβ agonist (n=4). After 3 months the mice were tested for glucose intolerance with an intra-peritoneal glucose tolerance test (GTT). Mice were then sacrificed by cervical dislocation. Blood and various tissue samples were harvested.
# Glucose Tolerance Test (GTT). Glucose tolerance was performed using an intraperitoneal glucose tolerance test (GTT). Mice were fasted overnight (˜16 hrs) followed by intra-peritoneal injections (n=3-5 per group) of 50% glucose in PBS at 2.0 g of glucose/kg of body weight. Tail vein blood was collected at 15, 30, 45, 60, and 120 minutes post-injection for glucose measurements using a FreeStyle Lite Blood Glucose Monitoring System (Abbott Diabetes Care, Inc. Alameda, Calif.). Random and fasting blood glucose measurements were taken from tail veins of 4 mice per group at 2-3 random time points daily or just prior to GTT. Means are expressed as ±standard error of the mean (S.E.M) and P-values were calculated using one-way analysis of variance followed by Bonferroni post-hoc analysis. Grubbs' maximum normal residual test was used for detection of one or more outliers.
smiles,measurement,setting,value
CCCCOCCOc1nc(-c2ccc(C(=O)O)c(F)c2)sc1C [AC261066],"accumulation of liver, pancreas, kidney, muscle and adipose triglycerides",[1],reduces
same,reduction in α-SMA positive RSCs,[2],> 50%
same,glucose tolerance and area under the curve glucose,[3],improved
same,overnight fasting glucose levels,[3],significant reductions
same,decrease in body weights compared to HF-fed mice,[3]; 3.0 mg/100 ml drinking water,~10%
